Data on 5 compounds can be found in patent US20250019385A1, “SPIROCYCLIC ANNULATED 2-AMINO-3-CYANO THIOPHENES AND DERIVATIVES FOR THE TREATMENT OF CANCER” (Boehringer Ingelheim International GmbH, priority 2023, published 2025).

Bounds are passed on as bounds.

The subject of one data set is MKN1 cells. Nature of the data set: MKN1 CTG proliferation assay (120 h) (gastric cancer, wt amplified). It is filed as cell-based. Conditions: Homo sapiens, MKN-1. The protocol: (§1) MKN1 cells (JCRB0252) are dispensed into black 384-well plates, flat and clear bottom (Greiner, PNr. 781091) at a density of 200 cells per well in 60 μl RPMI-1640 ATCC-Formulation (Gibco #A10491)+10% FCS (fetal calf serum, HyClone, SH30084.03). Cells are incubated overnight at 37° C. in a humidified tissue culture incubator at 5% CO2. Compounds (10 mM stock in DMSO) are added at logarithmic dose series using the ECHO acoustic liquid handler system (Beckman Coulter), normalizing for added DMSO and including DMSO controls. All compound treatments are performed in technical duplicates. For the TO time point measurement, untreated cells are analyzed at the time of compound addition. Plates are incubated for 120 h, and cell viability is measured using CellTiter-Glo luminescent cell viability reagent (Promega product code G7570). Viability (stated as percent of control) is defined as relative luminescence units RLU of each well divided by the RLU of cells in DMSO controls. IC50 values are determined from viability measurements by non-linear regression using a four-parameter model.
(§2) IC50 values of representative compounds according to the invention measured with these assays in the indicated cell lines are presented in Table 46.
As usually defined, the IC50 is the concentration that gives 50% inhibition. In turn, `C[C@H](Oc1nc(-c2onc3c2CCC[C@@]32CCCc3sc(N)c(C#N)c32)nc2c1[nH]c(=O)n2[C@@H]1CCOC1)[C@@H]1CCCN1C` [I-8] registered an IC50 of 41 nM.
On to `C[C@H](Oc1nc(-c2onc3c2CCC[C@@]32CCCc3sc(N)c(C#N)c32)nc2c1n(C)c(=O)n2[C@@H]1CCOC1)[C@@H]1C[C@@H](F)CN1C` [I-22], for which the half-maximal inhibitory concentration (IC50) was 14 nM.
Same read-out and setting: with `C[C@H](Oc1nc(-c2onc3c2CCC[C@@]32CCCc3sc(N)c(C#N)c32)nc2c1n(C)c(=O)n2[C@@H]1CCOC1)[C@@H]1[C@@H](F)CCN1C` [I-5] the figure was 113 nM; with `CCn1c(=O)n([C@@H]2CCCOC2)c2nc(-c3onc4c3CCC[C@@]43CCCc4sc(N)c(C#N)c43)nc(OCC34CCCN3CCC4)c21` [I-34], 3400 nM.
In turn, `C[C@H](Oc1nc(-c2onc3c2CCC[C@@]32CCCc3sc(N)c(C#N)c32)nc2c1n(C)c(=O)n2[C@@]12COC[C@@H]1C2)[C@@H]1CC[C@H](C)N1C` [I-45] showed an IC50 of 11 nM. Against the preceding compound, the IC50 is about 310-fold lower.

For the next data set, the system named is Ba/F3 cells KRAS G12C. Nature of the data set: Ba/F3 proliferation assay (KRAS G12C). It is filed as cell-based. Conditions: Mus musculus, BaF3, 72 h, AlamarBlue viability. A digest of the protocol: (§3)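 Ba/F3 cells retrovirally transduced with KRAS G12 mutant, puromycin-selected, grown IL-3-independent; seeded in RPMI-1640 + 10% FCS without IL-3. Logarithmic compound dose series in duplicate, 72 h at 37° C., AlamarBlue fluorescence as % of DMSO control; IC50 from four-parameter non-linear regression.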
`C[C@H](Oc1nc(-c2onc3c2CCC[C@@]32CCCc3sc(N)c(C#N)c32)nc2c1[nH]c(=O)n2[C@@H]1CCOC1)[C@@H]1CCCN1C` [I-8] had an IC50 of 41 nM.
On the same count and under the same terms, with `C[C@H](Oc1nc(-c2onc3c2CCC[C@@]32CCCc3sc(N)c(C#N)c32)nc2c1n(C)c(=O)n2[C@@H]1CCOC1)[C@@H]1C[C@@H](F)CN1C` [I-22] the figure was 10 nM.
Regarding `C[C@H](Oc1nc(-c2onc3c2CCC[C@@]32CCCc3sc(N)c(C#N)c32)nc2c1n(C)c(=O)n2[C@@H]1CCOC1)[C@@H]1[C@@H](F)CCN1C` [I-5], 31 nM corresponded to half-maximal inhibition (IC50). Against the preceding compound, the IC50 is about 3.1-fold higher.
The compound `CCn1c(=O)n([C@@H]2CCCOC2)c2nc(-c3onc4c3CCC[C@@]43CCCc4sc(N)c(C#N)c43)nc(OCC34CCCN3CCC4)c21` [I-34] displayed an IC50 of 1180 nM.
Still for that read-out and setting: next, `C[C@H](Oc1nc(-c2onc3c2CCC[C@@]32CCCc3sc(N)c(C#N)c32)nc2c1n(C)c(=O)n2[C@@]12COC[C@@H]1C2)[C@@H]1CC[C@H](C)N1C` [I-45]: 1 nM.

For the next data set, the system named is AsPC-1 cells. Nature of the data set: AsPC-1 CTG proliferation assay (120 h) (pancreatic cancer, G12D). Type of data set: cell-based. Conditions: Homo sapiens, ASPC1. On the procedure: as §1, with “AsPC-1” for “MKN1”, “(ATCC CRL-1682)” for “(JCRB0252)”, “500” for “200”, “RPMI” for “RPMI-1640”, “(PAN P04-18047)+10%” for “(Gibco #A10491)+10%”
as §2
On to `C[C@H](Oc1nc(-c2onc3c2CCC[C@@]32CCCc3sc(N)c(C#N)c32)nc2c1[nH]c(=O)n2[C@@H]1CCOC1)[C@@H]1CCCN1C` [I-8], for which the IC50 is 1260 nM.
Same read-out and setting: next, `C[C@H](Oc1nc(-c2onc3c2CCC[C@@]32CCCc3sc(N)c(C#N)c32)nc2c1n(C)c(=O)n2[C@@H]1CCOC1)[C@@H]1C[C@@H](F)CN1C` [I-22]: 1090 nM; `C[C@H](Oc1nc(-c2onc3c2CCC[C@@]32CCCc3sc(N)c(C#N)c32)nc2c1n(C)c(=O)n2[C@@H]1CCOC1)[C@@H]1[C@@H](F)CCN1C` [I-5]: 224 nM.
The same measure, in the same setting: next, `CCn1c(=O)n([C@@H]2CCCOC2)c2nc(-c3onc4c3CCC[C@@]43CCCc4sc(N)c(C#N)c43)nc(OCC34CCCN3CCC4)c21` [I-34]: 5070 nM; `C[C@H](Oc1nc(-c2onc3c2CCC[C@@]32CCCc3sc(N)c(C#N)c32)nc2c1n(C)c(=O)n2[C@@]12COC[C@@H]1C2)[C@@H]1CC[C@H](C)N1C` [I-45]: 286 nM.

In the next data set the test system is Ba/F3 cells KRAS G12V. Nature of the data set: Ba/F3 proliferation assay (KRAS G12V). It is filed as cell-based. Particulars: Mus musculus, BaF3, 72 h, AlamarBlue viability. The method, boiled down: as §3
(Alamar Blue is a resazurin reagent that responds to reducing activity.)
Consider `C[C@H](Oc1nc(-c2onc3c2CCC[C@@]32CCCc3sc(N)c(C#N)c32)nc2c1[nH]c(=O)n2[C@@H]1CCOC1)[C@@H]1CCCN1C` [I-8], for which half-maximal inhibition (IC50) was put at 20 nM. This counts as double-digit nanomolar.
The same measure, in the same setting: next, `C[C@H](Oc1nc(-c2onc3c2CCC[C@@]32CCCc3sc(N)c(C#N)c32)nc2c1n(C)c(=O)n2[C@@H]1CCOC1)[C@@H]1C[C@@H](F)CN1C` [I-22]: 4 nM.
As for `C[C@H](Oc1nc(-c2onc3c2CCC[C@@]32CCCc3sc(N)c(C#N)c32)nc2c1n(C)c(=O)n2[C@@H]1CCOC1)[C@@H]1[C@@H](F)CCN1C` [I-5], it took 14 nM to reach half-maximal inhibition (IC50).
As to `CCn1c(=O)n([C@@H]2CCCOC2)c2nc(-c3onc4c3CCC[C@@]43CCCc4sc(N)c(C#N)c43)nc(OCC34CCCN3CCC4)c21` [I-34], the half-inhibitory concentration (IC50) is 553 nM.
Consider `C[C@H](Oc1nc(-c2onc3c2CCC[C@@]32CCCc3sc(N)c(C#N)c32)nc2c1n(C)c(=O)n2[C@@]12COC[C@@H]1C2)[C@@H]1CC[C@H](C)N1C` [I-45], for which the IC50 is 1 nM. Compared with the last compound, the IC50 is about 550-fold lower.

System in another data set: not listed separately
Nature of the data set: Metabolic (microsomal) stability assay, human liver microsomes (HLM). Conditions: 1 μM test compound, predicted clearance as percent of liver blood flow. Type of data set: in vitro ADME.
For the compound `C[C@H](Oc1nc(-c2onc3c2CCC[C@@]32CCCc3sc(N)c(C#N)c32)nc2c1[nH]c(=O)n2[C@@H]1CCOC1)[C@@H]1CCCN1C` [I-8], the “HLM QH” value is under 24%.
Same read-out and setting: with `C[C@H](Oc1nc(-c2onc3c2CCC[C@@]32CCCc3sc(N)c(C#N)c32)nc2c1n(C)c(=O)n2[C@@H]1CCOC1)[C@@H]1C[C@@H](F)CN1C` [I-22] the figure was 56%.
On to `C[C@H](Oc1nc(-c2onc3c2CCC[C@@]32CCCc3sc(N)c(C#N)c32)nc2c1n(C)c(=O)n2[C@@H]1CCOC1)[C@@H]1[C@@H](F)CCN1C` [I-5], for which the “HLM QH” value is on record as 65%.
Still for that read-out and setting: next, `CCn1c(=O)n([C@@H]2CCCOC2)c2nc(-c3onc4c3CCC[C@@]43CCCc4sc(N)c(C#N)c43)nc(OCC34CCCN3CCC4)c21` [I-34]: under 24%; `C[C@H](Oc1nc(-c2onc3c2CCC[C@@]32CCCc3sc(N)c(C#N)c32)nc2c1n(C)c(=O)n2[C@@]12COC[C@@H]1C2)[C@@H]1CC[C@H](C)N1C` [I-45]: 41%.
